Experimental data published in article PMC8194028, “Engineering and characterization of human β-defensin-3 and its analogues and microcin J25 peptides against Mannheimia haemolytica and bovine neutrophils” (Veterinary Research, 2021).
Like-named read-outs stand apart in the source and are kept apart here. Positions of bridges follow the written chain, without caps; N, C: chain ends. Residues, ends and D or L forms follow the SMILES beside them. No end group written: not given here.

Assays:
M. haemolytica = assay: Inhibition of visible growth (MIC assay, optical density method); format: cell-based, Mannheimia haemolytica; conditions: 10 000–25 000 bacteria/well; compared with control wells
Experimental: (§1) Wild-type HBD3, its analogues, and MccJ25 were tested against M. haemolytica-A1 using optical density method and colony count assay. Briefly, an aliquot (5 µL) from bacteria suspension stored at −80 °C was put in 5 mL BHI broth at 37 °C for 18 h. An aliquot (10 µL) from this overnight culture was added to fresh BHI broth and incubated at 37 °C for a further 5 h to obtain mid-log phase bacteria. The culture was then centrifuged for 10 min at 800 g at 4 °C. The supernatant was discarded and the bacterial pellet was resuspended in cold, sterile sodium phosphate buffer (SPB) and washed again at 800g for 10 min at 4 °C. The pellet was resuspended in 5 mL SPB. To calculate the number of CFU/mL in the 5 h culture, six successive tenfold dilutions were made. From the last dilution 100 µL was plated in duplicate on petri dishes containing BHI agar and incubated for 24 h. After 24 h the colonies were counted in the two petri dishes and then averaged. Total number of colonies was the average number of colonies multiplied by the dilution factor.
All assays were carried out in sterile 96-well polypropylene flat-bottomed plates using a broth microdilution method. Two-fold serial dilutions of peptide were made in SPB, and 50 µL of each concentration of peptide was added to the wells of the assay plate. […]

[1] = cited from earlier work
From the text: In this context, antimicrobial peptides (AMPs) have received significant attention as alternatives to antibiotics. […] Recent work by the […] laboratory has shown that treatment with naturally expressed Tracheal Antimicrobial Peptide, a defensin, neither killed M. haemolytica nor prevented the development of lung disease. Coupled with the fact that M. haemolytica, in normal condition, is prevented from e ...

M. haemolytica-A1 = format: cell-based, Mannheimia haemolytica; conditions: for LD50 / MBC: 2 h; for Sensitivity of M. haemolytica to the peptide (class by MBC): MBC assay, classification of ref 28; for No. of CFU: final inoculum 5 × 10^5 cfu/mL, one of three experiments
Experimental: as §1
All assays were carried out in sterile 96-well polypropylene flat-bottomed plates using a broth microdilution method. Two-fold serial dilutions of peptide were made in SPB, and 50 µL of each concentration of peptide was added to the wells of the assay plate. […] Positive control wells contained 50 µL of the bacteria with 50 µL of 64 µg/mL ampicillin and negative control wells contained 50 µL of SPB and 50 µL bacterial suspension. Sterility control well contained 100 µL BHI broth to test and ensure that broth was not contaminated.
The plates were sealed with aluminum foil and were incubated at 37 °C for 2 h then 50 µL of the contents of the well were pipetted on BHI agar plates and incubated for 24 h. The bactericidal activity was expressed as the MBC which is the concentration at which 99.9% of the colonies are killed and the Lethal dose 50 (LD50) at which 50% or more bacteria are killed. All experiments were run in triplicates.
Peptides HBD3, its analogues and Mccj25 were assessed for Minimum bactericidal concentration (MBC). […] All the peptides have shown intermediate to potent killing activity towards M. haemolytica (Figures 2, 3). […] However, some published studies have taken final inoculum in the range of 10^4–10^5 cfu/mL [28].

bovine neutrophils [2] = assay: Chemotaxis assay, 48-well Boyden chamber; format: cell-based, cattle; conditions: peptide 50.0 μg/mL in lower well; 20 min at 37 °C; three independent experiments; ANOVA with Dunnett, P < 0.05
Experimental: (§2) Neutrophils were isolated from cattle using established methods and approved by the University of Saskatchewan’s Committee on Animal Care. For each individual animal, blood was pooled into 50 mL tubes and diluted with an equal volume of PBS then 12.5 mL of the diluted blood was layered over 10 mL of Ficoll Paque PLUS (Sigma-Aldrich, St. Louis, USA) while taking care to preserve the interface between the two liquids. Following centrifugation at 400 g for 30 min at 20 °C with the brake turned off, the lymphocyte layer was discarded along with Ficoll and plasma. The pellet was washed in 20 mL PBS with centrifugation at 500 g with low brake for 10 min. The supernatant was discarded and the pellet was suspended in equal volume of sterile water and gently mixed for 20 s followed by addition of equal volume of 1.8% NaCl to restore tonicity. The mixture was centrifuged at 500 g for 10 min and followed by another washing and centrifugation at 4 °C. The resulting neutrophil pellet was resuspended in PBS. Bovine neutrophils, collected in the above manner had more than 92% purity, and their viability was greater than 95% based on Trypan blue exclusion assay. Therefore, we use the term neutrophils in the manuscript.
We used fMLP ([…]) as the chemoattractant. […] The cells within the filter pores were then counted in five random fields under light microscope at 40×. […]

bovine neutrophils [3] = assay: Migration inhibition assay (neutrophil migration towards fMLP); format: cell-based, cattle; conditions: neutrophils with 50.0 μg/mL peptide in upper well; fMLP 114 nM in lower well; 20 min at 37 °C; three independent experiments
Experimental: as §2
Since peptides can be immunomodulatory, migration inhibition was carried out to determine if the peptides inhibit neutrophil migration. […]

[4] = test system: 28 species and 55 strains of Gram-positive cocci and Gram-negative fermentative and non-fermentative rods; parameters: method as in PMID 12709350; conditions: final bacterial inoculum 10^4 to 10^5/mL; cited from earlier work
[5] = peptide 0.8 μg/mL, well row A (duplicate 1)
[6] = peptide 0.8 μg/mL, well row B (duplicate 2)
[7] = peptide 1.6 μg/mL, well row A (duplicate 1)
[8] = peptide 1.6 μg/mL, well row B (duplicate 2)
[9] = peptide 3.1 μg/mL, well row A (duplicate 1)
[10] = peptide 3.1 μg/mL, well row B (duplicate 2)
[11] = peptide 12.5 μg/mL, well row A (duplicate 1)
[12] = peptide 12.5 μg/mL, well row B (duplicate 2)
[13] = peptide 25.0 μg/mL, well row A (duplicate 1)
[14] = peptide 25.0 μg/mL, well row B (duplicate 2)
[15] = peptide 50.0 μg/mL, well row A (duplicate 1)
[16] = peptide 50.0 μg/mL, well row B (duplicate 2)
[17] = peptide 100.0 μg/mL, well row A (duplicate 1), 2 h 37 °C, 50 μL plated, 24 h
[18] = peptide 100.0 μg/mL, well row B (duplicate 2)

**Q.** With `CC1(C)S[C@@H]2[C@H](NC(=O)[C@H](N)c3ccccc3)C(=O)N2[C@H]1C(=O)O` [Ampicillin] as the compound, how does the “Inhibition of visible growth of M. haemolytica” value (M. haemolytica) read?
**A.** The value was “no growth”.

**Q.** With `CC[C@H](C)[C@H](NC(=O)CNC(=O)[C@@H](NC(=O)[C@H](Cc1ccccc1)NC(=O)[C@H](Cc1ccc(O)cc1)NC(=O)[C@@H]1CCC(=O)NCC(=O)NCC(=O)N[C@@H](C)C(=O)NCC(=O)N[C@@H](Cc2cnc[nH]2)C(=O)N[C@@H](C(C)C)C(=O)N2CCC[C@H]2C(=O)N1)C(C)C)C(=O)NCC(=O)N[C@H](C(=O)N1CCC[C@H]1C(=O)N[C@H](C(=O)N[C@@H](CO)C(=O)N[C@@H](Cc1ccccc1)C(=O)N[C@@H](Cc1ccc(O)cc1)C(=O)NCC(=O)O)[C@@H](C)CC)[C@@H](C)O` [MccJ25, Microcin J25] (GGAGHVPEYFVGIGTPISFYG-OH; lactam N-8) as the compound, how does the “Stability in the presence of many proteolytic enzymes” value [1] read?
**A.** Its value is “stable”.

**Q.** Which LD50 (M. haemolytica-A1) does the source give for “GIINTLQKYYCRVRGGRCAVLSCLPKEEQIGKCSTRGRKCCRRKK (disulfide 11-40, 18-33, 23-41 (inferred)) [HBD3, Human β-Defensin 3, reference compound]” here?
**A.** Its LD50 is 6.3 µg/mL.

**Q.** And the MBC (M. haemolytica-A1)?
**A.** The MBC was 50.0 µg/mL.

**Q.** What about the “Sensitivity of M. haemolytica to the peptide (class by MBC)” value (M. haemolytica-A1) of the same compound?
**A.** The value was “intermediately sensitive (as intermediately sensitive if MBC levels were 10–100 μg/mL)”.

**Q.** And the “No. of CFU” value (M. haemolytica-A1; [5])?
**A.** The value was >400 CFU.

**Q.** What about the “No. of CFU” value (M. haemolytica-A1; [6]) of the same compound?
**A.** Its value is >400 CFU.

**Q.** And the “No. of CFU” value (M. haemolytica-A1; [7])?
**A.** The value was >400 CFU.

**Q.** And the “No. of CFU” value (M. haemolytica-A1; [8])?
**A.** Its value is >400 CFU.

**Q.** And the “No. of CFU” value (M. haemolytica-A1; [9])?
**A.** The value was >400 CFU.

**Q.** What about the “No. of CFU” value (M. haemolytica-A1; [10]) of the same compound?
**A.** Its value is >400 CFU.

**Q.** What about the “No. of CFU” value (M. haemolytica-A1; peptide 6.3 μg/mL, well row A (duplicate 1)) of the same compound?
**A.** The value was 210 CFU.

**Q.** And the “No. of CFU” value (M. haemolytica-A1; peptide 6.3 μg/mL, well row B (duplicate 2))?
**A.** The value was 390 CFU.

**Q.** And the “No. of CFU” value (M. haemolytica-A1; [11])?
**A.** Its value is 42 CFU.

**Q.** What about the “No. of CFU” value (M. haemolytica-A1; [12]) of the same compound?
**A.** The value was 101 CFU.

**Q.** And the “No. of CFU” value (M. haemolytica-A1; [13])?
**A.** Its value is 31 CFU.

**Q.** What about the “No. of CFU” value (M. haemolytica-A1; [14]) of the same compound?
**A.** The value was 9 CFU.

**Q.** What about the “No. of CFU” value (M. haemolytica-A1; [15]) of the same compound?
**A.** Its value is 0 CFU.

**Q.** And the “No. of CFU” value (M. haemolytica-A1; [16])?
**A.** The value was 0 CFU.

**Q.** And the “No. of CFU” value (M. haemolytica-A1; [17])?
**A.** Its value is 0 CFU.

**Q.** And the “No. of CFU” value (M. haemolytica-A1; [18])?
**A.** The value was 0 CFU.

**Q.** What about the “Chemotaxis of bovine neutrophils towards peptide (migrated neutrophils vs PBS)” value (bovine neutrophils [2]) of the same compound?
**A.** The value was “chemotactic”.

**Q.** And the “Effect of peptide on neutrophil migration towards fMLP” value (bovine neutrophils [3])?
**A.** Its value is “none of the peptides inhibited migration”.

**Q.** And the “MBC, three strains out of 55 tested (intermediate susceptibility)” value [4]?
**A.** Its value is 50.0 µg/mL.

**Q.** For “KEEQIGKVSTRGRKVVRRKK-OH [HBD3 20AA analogue]”, which LD50 (M. haemolytica-A1) is on record?
**A.** Its LD50 is 3.1 µg/mL.

**Q.** And the MBC (M. haemolytica-A1)?
**A.** Its MBC is 50.0 µg/mL.

**Q.** And the “Sensitivity of M. haemolytica to the peptide (class by MBC)” value (M. haemolytica-A1)?
**A.** The value was “intermediately sensitive (as intermediately sensitive if MBC levels were 10–100 μg/mL)”.

**Q.** What about the “No. of CFU” value (M. haemolytica-A1; [5]) of the same compound?
**A.** Its value is >400 CFU.

**Q.** What about the “No. of CFU” value (M. haemolytica-A1; [6]) of the same compound?
**A.** Its value is >400 CFU.

**Q.** And the “No. of CFU” value (M. haemolytica-A1; [7])?
**A.** The value was >400 CFU.

**Q.** And the “No. of CFU” value (M. haemolytica-A1; [8])?
**A.** The value was >400 CFU.

**Q.** What about the “No. of CFU” value (M. haemolytica-A1; [9]) of the same compound?
**A.** Its value is 376 CFU.

**Q.** And the “No. of CFU” value (M. haemolytica-A1; [10])?
**A.** The value was >400 CFU.

**Q.** What about the “No. of CFU” value (M. haemolytica-A1; [11]) of the same compound?
**A.** The value was 240 CFU.

**Q.** What about the “No. of CFU” value (M. haemolytica-A1; [12]) of the same compound?
**A.** The value was 170 CFU.

**Q.** What about the “No. of CFU” value (M. haemolytica-A1; [13]) of the same compound?
**A.** Its value is 128 CFU.

**Q.** And the “No. of CFU” value (M. haemolytica-A1; [14])?
**A.** Its value is 151 CFU.

**Q.** What about the “No. of CFU” value (M. haemolytica-A1; [15]) of the same compound?
**A.** The value was 15 CFU.

**Q.** And the “No. of CFU” value (M. haemolytica-A1; [16])?
**A.** Its value is 4 CFU.

**Q.** What about the “No. of CFU” value (M. haemolytica-A1; [17]) of the same compound?
**A.** The value was 4 CFU.

**Q.** And the “No. of CFU” value (M. haemolytica-A1; [18])?
**A.** The value was 1 CFU.

**Q.** And the “Chemotaxis of bovine neutrophils towards peptide (migrated neutrophils vs PBS)” value (bovine neutrophils [2])?
**A.** Its value is “chemotactic”.

**Q.** What about the “Effect of peptide on neutrophil migration towards fMLP” value (bovine neutrophils [3]) of the same compound?
**A.** The value was “none of the peptides inhibited migration”.
